Source: patent US20080161232A1, “C5a Receptor Antagonist” (JERINI AG, priority 2005, published 2008)
Positions of bridges follow the written chain, without caps; N, C: chain ends. Non-standard residues stand in square brackets, D forms with d. Residues, ends and D or L forms follow the SMILES beside them. *: point of attachment. Phe(4-tBu) = CC(C)(C)c1ccc(C[C@H](N)C(=O)O)cc1; NMe2Phe = CN(C)[C@@H](Cc1ccccc1)C(=O)*; 1Nal = N[C@@H](Cc1cccc2ccccc12)C(=O)O; 2Nal = N[C@@H](Cc1ccc2ccccc2c1)C(=O)O; Bta = N[C@@H](Cc1csc2ccccc12)C(=O)O; 2Thi = N[C@@H](Cc1cccs1)C(=O)O; Cha = N[C@@H](CC1CCCCC1)C(=O)O; dCha = N[C@H](CC1CCCCC1)C(=O)O; X23 = O=C(CC(O)c1ccccc1)*; Nle = CCCC[C@H](N)C(=O)O; Orn = NCCC[C@H](N)C(=O)O; Aze = O=C(O)[C@@H]1CCN1

target: T1, human C5aR(CD88) (Homo sapiens, UniProt P21730); test: Determination of the IC50 value in an enzyme release assay (functional assay, antagonistic activity); assay type: cell-based; settings: antagonistic activity; IC50 group in enzyme release assay, RBL cells expressing human C5aR(CD88); read-out: activity (group)
T1 construct: expressed in transfected cells; host or cells: rat basophilic leukemia cells (RBL)
T1 sequence (P21730 1-350): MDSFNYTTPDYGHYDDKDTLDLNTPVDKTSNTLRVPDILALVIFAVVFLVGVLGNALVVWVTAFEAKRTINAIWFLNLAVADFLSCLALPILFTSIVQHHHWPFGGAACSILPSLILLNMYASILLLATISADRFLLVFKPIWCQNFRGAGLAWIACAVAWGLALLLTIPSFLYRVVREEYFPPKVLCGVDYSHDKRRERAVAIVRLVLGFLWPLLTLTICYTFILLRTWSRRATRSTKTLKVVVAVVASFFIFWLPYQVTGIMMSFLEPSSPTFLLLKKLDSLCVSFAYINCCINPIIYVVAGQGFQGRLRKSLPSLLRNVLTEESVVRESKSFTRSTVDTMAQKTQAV

IC50	SMILES
> 2000 nM	CC(=O)N[C@@H](Cc1ccccc1)C(=O)N[C@H]1CCCNC(=O)[C@H](C)NC(=O)[C@H](Cc2c[nH]c3ccccc23)NC(=O)[C@@H](CC2CCCCC2)NC(=O)[C@@H]2CCCN2C1=O [Compound 39] (Ac-F[Orn]P[dCha]WA; lactam 2-C)
20 to 50 nM	CC(=O)N[C@@H](Cc1ccccc1)C(=O)N[C@@H](CCCN)C(=O)N1CCC[C@H]1C(=O)N[C@H](CC1CCCCC1)C(=O)N[C@@H](Cc1c[nH]c2ccccc12)C(=O)N[C@@H](Cc1ccccc1)C(N)=O [Compound 51, Ac-Phe-Orn-Pro-cha-Trp-Phe-NH2] (Ac-F[Orn]P[dCha]WF-NH2)
10 to 20 nM	CC(=O)N[C@@H](Cc1ccccc1)C(=O)N[C@@H](CCCN)C(=O)N1CC[C@H]1C(=O)N[C@H](CC1CCCCC1)C(=O)N[C@@H](Cc1csc2ccccc12)C(=O)N[C@@H](Cc1ccccc1)C(N)=O [Compound 52, Ac-Phe-Orn-Aze-cha-Bta-Phe-NH2] (Ac-F[Orn][Aze][dCha][Bta]F-NH2)
20 to 50 nM	CCCC[C@@H]1NC(=O)[C@H](Cc2c[nH]c3ccccc23)NC(=O)[C@@H](CC2CCCCC2)NC(=O)[C@@H]2CCCN2C(=O)[C@@H](NCc2ccccc2)CCCNC1=O [Compound 56, Ph-CH2-[Orn-Pro-cha-Trp-Nle]]
20 to 50 nM	O=C1NCCC[C@H](NCc2ccccc2)C(=O)N2CCC[C@H]2C(=O)N[C@H](CC2CCCCC2)C(=O)N[C@@H](Cc2c[nH]c3ccccc23)C(=O)N[C@H]1Cc1ccccc1 [Compound 57, Ph-CH2-[Orn-Pro-cha-Trp-Phe]]
20 to 50 nM	CC(=O)N[C@@H](Cc1ccccc1)C(=O)N[C@H]1CCCNC(=O)[C@H](Cc2cccc3ccccc23)NC(=O)[C@H](Cc2c[nH]c3ccccc23)NC(=O)[C@@H](CC2CCCCC2)NC(=O)[C@@H]2CCCN2C1=O [Compound 58, Ac-Phe-[Orn-Pro-cha-Trp-1Ni]] (Ac-F[Orn]P[dCha]W[1Nal]; lactam 2-C)
20 to 50 nM	CCCC[C@@H]1NC(=O)[C@H](Cc2c[nH]c3ccccc23)NC(=O)[C@@H](CC2CCCCC2)NC(=O)[C@@H]2CCCN2C(=O)[C@@H](NC(=O)CC(O)c2ccccc2)CCCNC1=O (stereo partly drawn) [Compound 59, Ph-CH(OH)—CH2—CO-[Orn-Pro-cha-Trp-Nle]] (X23-[Orn]P[dCha]W[Nle]; lactam 1-C)
20 to 50 nM	CC(=O)N[C@@H](Cc1ccccc1)C(=O)N[C@@H](CCCN)C(=O)N1CCC[C@H]1C(=O)N[C@H](CC1CCCCC1)C(=O)N[C@@H](Cc1c[nH]c2ccccc12)C(=O)N[C@@H](Cc1ccc2ccccc2c1)C(N)=O [Compound 64, Ac-Phe-Orn-Pro-cha-Trp-2Ni—NH2] (Ac-F[Orn]P[dCha]W[2Nal]-NH2)
50 to 200 nM	CC(=O)N[C@@H](Cc1ccccc1)C(=O)N[C@@H](CCCN)C(=O)N1CCC[C@H]1C(=O)N[C@H](CC1CCCCC1)C(=O)N[C@@H](Cc1c[nH]c2ccccc12)C(=O)N[C@@H](CC1CCCCC1)C(N)=O [Compound 65, Ac-Phe-Orn-Pro-cha-Trp-Cha-NH2] (Ac-F[Orn]P[dCha]W[Cha]-NH2)
10 to 20 nM	CC(=O)N[C@@H](Cc1cccs1)C(=O)N[C@@H](CCCN)C(=O)N1CC[C@H]1C(=O)N[C@H](CC1CCCCC1)C(=O)N[C@@H](Cc1csc2ccccc12)C(=O)N[C@@H](Cc1ccccc1)C(N)=O [Compound 66, Ac-Thi-Orn-Aze-cha-Bta-Phe-NH2] (Ac-[2Thi][Orn][Aze][dCha][Bta]F-NH2)
200 to 2000 nM	CC(=O)N[C@@H](Cc1ccccc1)C(=O)N[C@@H](CCCN)C(=O)N1CCC[C@H]1C(=O)N[C@H](CC1CCCCC1)C(=O)N[C@@H](Cc1c[nH]c2ccccc12)C(=O)N[C@@H](Cc1ccc(C(C)(C)C)cc1)C(N)=O [Compound 68, Ac-Phe-Orn-Pro-cha-Trp-Eap-NH2] (Ac-F[Orn]P[dCha]W[Phe(4-tBu)]-NH2)
50 to 200 nM	CN(C)[C@@H](Cc1ccccc1)C(=O)N[C@@H](CCCN)C(=O)N1CCC[C@H]1C(=O)N[C@H](CC1CCCCC1)C(=O)N[C@@H](Cc1c[nH]c2ccccc12)C(=O)N[C@@H](Cc1ccccc1)C(N)=O [Compound 69, Me2-Phe-Orn-Pro-cha-Trp-Phe-NH2] (NMe2Phe-[Orn]P[dCha]WF-NH2)
